Data published in patent publication US5294713A, “2-piperazinone compounds and their use” (Takeda Chemical Industries, Ltd., priority 1991, dated 1994).

Tests used:
[1] = test system: guinea pig platelet aggregation; test: Inhibitory action on guinea pig platelet aggregation (ADP-stimulated PRP); assay type: cell-based; details: Cavia porcellus, ADP final concentration 1 μM, in vitro, read-out: Inhibitory effect on platelet aggregation in vitro (IC50) guinea pig
Protocol: TEST EXAMPLE 1 [I] Inhibitory action on guinea pig platelet aggregation
Blood was collected in 3.15% sodium citrate (1 ml for 9 ml of blood) by cardiac puncture from male guinea pig. The blood was centrifuged at 1000 g for 3 to 5 seconds at room temperature to obtain platelet rich plasma (PRP). The PRP was further centrifuged at 1000 g for 10 minutes to obtain platelet poor plasma (PPP). The number of platelets was measured using an automatic blood cell counter (Sysmex E2500, Toaiyou-densi). The platelet density of PRP was adjusted to 400,000/μl with PPP. Platelet aggregation was measured using an 8-channel aggregometer (NBS HEMA TRACER VI Niko Bioscience Inc.). The PRP (250 μl ) was preincubated at 37° C. for 2 minutes. and then incubated for 2 minutes. with 25 μl of physiological saline or various concentrations of test drugs followed by stimulation with ADP (final concentration: 1 μM). By comparing the maximum aggregation rates of the control and those of test drugs, the inhibitory rates were determined. The results are shown in [Table 1]-[Table 3].

[2] = test system: human platelet aggregation; test: Inhibitory action on human platelet aggregation (ADP-stimulated PRP); assay type: cell-based; details: ADP final concentration 3 μM, in vitro, read-out: Inhibitory effect on platelet aggregation in vitro (IC50) man
Protocol: [II] Inhibitory action on human platelet aggregation
Human blood was collected in 3.8% sodium citrate (1 ml for 9 ml of blood) by venipuncture from healthy male volunteers. The blood was centrifuged at 1000 g for 3 to 5 seconds at room temperature to obtain platelet rich plasma (PRP). The PRP was further centrifuged at 1000 g for 10 minutes to obtain platelet poor plasma (PPP). The number of platelets was measured using an automatic blood cell counter (Sysmex E2500, Toaiyou-densi). The platelet density of PRP was adjusted to 300,000/μl with PPP. Platelet aggregation was measured using an 8-channel aggregometer (NBS HEMA TRACER VI Niko Bioscience Inc.). The PRP (250 μl) was preincubated at 37° C. for 2 minutes. and then incubated for 2 minutes. with 25 μl of physiological saline or various concentrations of test drugs followed by stimulation with ADP (final concentration: 3 μM). By comparing the maximum aggregation rates of the control and those of test drugs, the inhibitory rates were determined. The results are shown in [Table 1]-[Table 3].

GPIIb/IIIa = biological target: T1, GPIIb/IIIa (Homo sapiens, UniProt P05106+P08514); test: Inhibition of fibrinogen binding to GPIIb/IIIa; details: purified GPIIb/IIIa from HEL cells, biotinylated human fibrinogen 1 nM
T1 construct: Purification of GPIIb/IIIa from HEL Cells; endogenous in cells; host or cells: HEL cells (HEL 92.1.7; ATCC TIB180), human erythroleukemia; GPIIb/IIIa solubilized in Triton X-100, purified and adsorbed on microtiter plates
T1 sequence (P08514 32-887 limits assumed): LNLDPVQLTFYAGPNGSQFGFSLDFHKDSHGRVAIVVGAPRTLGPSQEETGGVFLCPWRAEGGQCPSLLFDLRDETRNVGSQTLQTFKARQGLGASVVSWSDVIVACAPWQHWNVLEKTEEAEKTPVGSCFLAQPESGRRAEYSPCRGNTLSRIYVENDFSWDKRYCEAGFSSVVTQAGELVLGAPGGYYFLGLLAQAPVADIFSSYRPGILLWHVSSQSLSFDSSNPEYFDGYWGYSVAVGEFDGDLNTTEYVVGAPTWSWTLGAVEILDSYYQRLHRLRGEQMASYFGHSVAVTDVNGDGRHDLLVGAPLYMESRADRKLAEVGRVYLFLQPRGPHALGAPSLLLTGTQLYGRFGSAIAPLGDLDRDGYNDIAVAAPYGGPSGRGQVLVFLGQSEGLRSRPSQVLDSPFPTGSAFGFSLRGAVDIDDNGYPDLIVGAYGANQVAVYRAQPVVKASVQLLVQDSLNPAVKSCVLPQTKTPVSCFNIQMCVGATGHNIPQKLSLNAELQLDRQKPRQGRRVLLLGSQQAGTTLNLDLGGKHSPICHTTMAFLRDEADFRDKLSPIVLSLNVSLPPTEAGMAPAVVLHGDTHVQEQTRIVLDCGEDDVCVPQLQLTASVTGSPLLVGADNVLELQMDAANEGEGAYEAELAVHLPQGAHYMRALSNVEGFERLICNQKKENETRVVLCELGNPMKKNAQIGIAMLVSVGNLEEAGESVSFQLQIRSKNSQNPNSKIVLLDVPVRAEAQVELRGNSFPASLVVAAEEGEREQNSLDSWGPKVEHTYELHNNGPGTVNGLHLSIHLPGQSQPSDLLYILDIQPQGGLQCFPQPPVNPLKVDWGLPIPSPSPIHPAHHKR
T1 sequence (P08514 891-1039 limits assumed): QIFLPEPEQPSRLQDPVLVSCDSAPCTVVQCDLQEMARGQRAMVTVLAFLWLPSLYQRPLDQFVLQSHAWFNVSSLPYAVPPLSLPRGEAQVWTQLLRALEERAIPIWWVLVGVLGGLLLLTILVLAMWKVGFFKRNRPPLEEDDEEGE
T1 sequence (P05106 27-788): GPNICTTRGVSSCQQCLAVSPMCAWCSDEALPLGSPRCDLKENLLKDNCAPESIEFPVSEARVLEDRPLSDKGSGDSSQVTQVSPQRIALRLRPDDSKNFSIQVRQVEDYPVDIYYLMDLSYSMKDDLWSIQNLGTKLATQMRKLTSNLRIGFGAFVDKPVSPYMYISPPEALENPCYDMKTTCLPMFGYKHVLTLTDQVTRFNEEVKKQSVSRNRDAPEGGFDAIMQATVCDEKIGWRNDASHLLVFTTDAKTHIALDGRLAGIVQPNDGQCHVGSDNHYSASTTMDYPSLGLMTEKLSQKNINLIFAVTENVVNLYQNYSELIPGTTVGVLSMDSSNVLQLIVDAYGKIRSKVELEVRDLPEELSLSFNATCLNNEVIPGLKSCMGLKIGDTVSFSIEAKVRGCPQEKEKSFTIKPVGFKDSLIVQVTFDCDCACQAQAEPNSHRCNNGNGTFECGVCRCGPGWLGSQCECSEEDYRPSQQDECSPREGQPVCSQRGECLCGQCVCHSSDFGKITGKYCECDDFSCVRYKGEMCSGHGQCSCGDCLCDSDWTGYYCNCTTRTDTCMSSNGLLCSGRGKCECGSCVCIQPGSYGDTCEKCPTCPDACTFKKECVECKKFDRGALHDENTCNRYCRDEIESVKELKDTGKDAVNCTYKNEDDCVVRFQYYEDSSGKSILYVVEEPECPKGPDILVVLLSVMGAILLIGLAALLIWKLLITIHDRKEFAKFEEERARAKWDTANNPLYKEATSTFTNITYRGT
Protocol: (1) Cultibation of Cells Derived from Human Erythroleukemia (Hereinafter Referred to as HEL Cells)
HEL cells (HEL 92. 1. 7; ATCC No. TIB180) were purchased from ATCC (Rockville, Md., U.S.A.). The cells were grown in RPMI medium containing 40 mM N-2-hydroxyethylpiperazin-N'-2-ethanesulfonic acid (hereinafter referred to as HEPES) (pH 7.0), 100 μg/ml of Kanamycin and 10% FCS (GIBCO Laboratories, Grand Island, N.Y., U.S.A.). Cultivation was conducted at 37° C in the presence of 5% CO2.
(2) Purification of GPIIb/IIIa from HEL Cells
Purification of GPIIb/IIIa was performed using the following modification of the method of L. A. Fitzgerald et al. [J. Biol. Chem., 262, 3936 (1987)]. The purification was conducted at room temperature unless specifically mentioned. From 7 L of the culture broth on 7th day of the cultibation (floating cells), the cells were collected by centrifugation (1,000×g, 10 minutes, 4° C.), which were washed with 20 mM Tris-HCl(pH 7.5) containing 1 mM EDTA and 150 mM NaCl. The cells were suspended in 80 ml of a solubilized buffer [20 mM Tris-HCl, 150 mM NaCl, 1% Triton X-100, 1 mM MgCl2, 1 mM CaCl2, 0.1 mM (p-amidinophenyl)methanesulfonyl fluoride (hereinafter referred to as APMSF), 10 nM leupeptin, 0.02% NaN3, pH 7.4)].
The cell suspension was gently mixed for 30 minutes at 4° C. to solubilize GPIIb/IIIa. The suspension was subjected to centrigugation (100,000×g, one hour) at 4° C. to remove cell debris to obtain a cell-extraction solution (60 ml). […] The fraction which passed through the column was charged on the ConA-Sepharose column (Pharmacia LKB, .phi. 1.0×15 cm, 20 ml/hr) to allow GPIIb/IIIa to be adsorbed thereon, then GPIIb/IIIa was eluted with column buffer solution containing 0.5 M methyl α-D-mannopyranoside. The eluate thus obtained was allowed to pass through the DEAE-Toyopearl 650 M column (Tosoh, .phi. 1.6×10.5 cm, 20 ml/hr) equilibrated with the same column buffer to remove contaminating proteins.
(3) Biotinylation of Human Fibrinogen
Biotinylation of human fibrinogen was performed by the following procedure [I. F. Charo et al., J. Biol. Chem., 266, 1415 (1991)]. Human fibrinogen (Kabi Vitrum AB, Stockholm, Sweden) was dissolved in PBS so as to make its concentration 5 mg/ml. The solution was dialyzed overnight at 4° C. against 1 L of 0.1 M NaHCO3 -0.1 M NaCl (pH 8.2). Insolubles were then removed by centrifugation (100,000×g, 30 minutes), and the solution was diluted with the same buffer to the protein concentration of 1 mg/ml. To thus-diluted solution was added powdery sulfo-N-hydroxysuccinimidobiotin (Pierce Chemical Co., Rockford, Ill., U.S.A.) so as to make its final concentration 0.2 mg/ml and gently mixed to perform biotinylate fibrinogen. The resultant was subjected to dialysis against 50 mM Tris-HCl (pH 7.4) - 100 mM NaCl-0.05% NaN3. The dialysate was distributed and stored at 4° C.
(4) Inhibition Assay for Fibrinogen Binding to GPIIb/IIIa
This experiment was performed using a modification of the method described in the above-mentioned I. F. Charo et al. report. The purified GPIIb/IIIa was diluted with the buffer A (20 mM Tris-HCl, 150 mM NaCl, 1 mM CaCl2, 0.02% NaN3, pH 7.4) to a concentration of 1 μg/ml. The diluted solution was added to 96-well microtiter plates (MaxiSorp; Nunc, Denmark) at 100 μl per well, which were left standing at 4° C. overnight to allow GPIIb/IIIa to be adsorbed on the microplates. The plate was aspirated, and then 150 μl of the buffer B (35 mg/ml BSA, 50 mM Tris-HCl, 100 mM NaCl, 2 mM CaCl2, 0.02%, NaN3, pH 7.4) was added to the plate, and blocking was performed at 30° C. for 2 hours. The plate was washed twice with 250 μl each of the buffer C (1 mg/ml BSA, 50mM Tris-HCl, 100 mM NaCl, 2 mM CaCl2, pH 7.4).

Structure (SMILES) | IC50 [1] [nM] | IC50 [2] [nM] | IC50 (GPIIb/IIIa) [nM]
C[C@@H](C(=O)O)N1CCN(C(=O)CNC(=O)c2ccc(C(=N)N)cc2)[C@@H](CC(=O)O)C1=O [compound 69] | 1500 | 1600 | 19
N=C(N)c1ccc(C(=O)NCC(=O)N2CCN(CC(=O)O)C(=O)[C@@H]2CC(N)=O)cc1 [compound 71] | 110 | 74 | 0.92
NCCc1ccc(C(=O)NCC(=O)N2CCN(CC(=O)O)C(=O)[C@@H]2CCC(=O)O)cc1 [compound 76] | 110 | 150 | 1
CN(C)CCc1ccc(C(=O)NCC(=O)N2CCN(CC(=O)O)C(=O)[C@@H]2CCC(=O)O)cc1 [compound 77] | 2500 | 4700 | 45
COC(=O)CC[C@H]1C(=O)N(CC(=O)O)CCN1C(=O)CNC(=O)c1ccc(CCN)cc1 [compound 80] | 120 | 110 | 0.89
NCCc1ccc(C(=O)NCC(=O)N2CCN(CC(=O)O)C(=O)[C@@H]2CCC(N)=O)cc1 [compound 84] | 110 | 120 | 1
CN(C)CCc1ccc(C(=O)NCC(=O)N2CCN(CC(=O)O)C(=O)[C@@H]2CCC(N)=O)cc1 [compound 85] | 4100 | 5600 | 32
NCCc1ccc(C(=O)NCC(=O)N2CCN(CC(=O)O)C(=O)C2)cc1 [compound 87] | 150 | 180 | 1.6
NCCc1ccc(C(=O)NCC(=O)N2CCN(CC(=O)O)C(=O)[C@@H]2CC(N)=O)cc1 [compound 88] | 84 | 140 | 2.3
NCCc1ccc(C(=O)NCC(=O)N2CCN(CC(=O)O)C(=O)[C@@H]2Cc2ccccc2)cc1 [compound 89] | 200 | 380 | 3.6
